Experimental data taken from publication PMC3759464 (PLoS ONE, 2013).
Read-outs that look alike come from different tables or passages of the source.

Legend:
[1] = biological target: T1, mH4R (Mus musculus, UniProt Q91ZY2); experiment: CRE-luciferase reporter gene assay, HEK293T; format: cell-based; parameters: gene Hrh4; SF-mH4R-His6: cleavable influenza hemagglutinin signal peptide and FLAG, hexahistidine tag; details: for EC50: read-out: mH4R / pEC50 or (pKB) (converted); for mH4R / pEC50 or (pKB): 1 µM forskolin, 5 h, 37 °C, agonist mode
T1 sequence (Q91ZY2 1-391): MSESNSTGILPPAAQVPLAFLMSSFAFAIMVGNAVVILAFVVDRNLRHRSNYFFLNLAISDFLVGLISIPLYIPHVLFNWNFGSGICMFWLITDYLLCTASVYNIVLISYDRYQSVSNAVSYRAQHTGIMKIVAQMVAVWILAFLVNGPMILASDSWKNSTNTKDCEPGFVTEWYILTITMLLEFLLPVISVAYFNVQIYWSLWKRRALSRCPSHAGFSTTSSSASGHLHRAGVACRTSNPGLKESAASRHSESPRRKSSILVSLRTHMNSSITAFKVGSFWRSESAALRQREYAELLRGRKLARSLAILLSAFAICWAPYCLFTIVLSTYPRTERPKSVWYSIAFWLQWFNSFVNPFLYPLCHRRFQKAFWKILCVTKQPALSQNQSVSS

[2] = biological target: T2, rH4R (Rattus norvegicus, UniProt Q91ZY1); experiment: CRE-luciferase reporter gene assay, HEK293T; format: cell-based; parameters: gene Hrh4; SF-rH4R-His6: cleavable influenza hemagglutinin signal peptide and FLAG, hexahistidine tag; details: for EC50: read-out: rH4R / pEC50 or (pKB) (converted); for rH4R / pEC50 or (pKB): 1 µM forskolin, 5 h, 37 °C, agonist mode
[3] = biological target: T2, rH4R; experiment: cell-based; parameters: gene Hrh4
[4] = biological target: T3, hH4R (Homo sapiens, UniProt Q9H3N8); experiment: cell-based; parameters: gene HRH4; SF-hH4R-His6: cleavable influenza hemagglutinin signal peptide and FLAG, hexahistidine tag; stably expressed in HEK293T with CRE-luc2P reporter; details: HEK293T-CRE-Luc stably expressing SF-H4R-His6, read-out: hH4R / α
[5] = biological target: T1, mH4R; experiment: cell-based; parameters: gene Hrh4; SF-mH4R-His6: cleavable influenza hemagglutinin signal peptide and FLAG, hexahistidine tag; GTPgammaS: Sf9 membranes co-expressing Galphai2 and Gbeta1gamma2; species or system HEK293T-CRE-Luc stably expressing SF-H4R-His6
[6] = biological target: T2, rH4R; experiment: […]GTPγS binding, Sf9 membranes; format: biochemical; parameters: gene Hrh4; SF-rH4R-His6: cleavable influenza hemagglutinin signal peptide and FLAG, hexahistidine tag; GTPgammaS: Sf9 membranes co-expressing Galphai2 and Gbeta1gamma2; details: read-out: rH4R / pEC50 or (pKB) (converted)
[7] = biological target: T2, rH4R; experiment: cell-based; parameters: gene Hrh4; SF-rH4R-His6: cleavable influenza hemagglutinin signal peptide and FLAG, hexahistidine tag; GTPgammaS: Sf9 membranes co-expressing Galphai2 and Gbeta1gamma2; species or system HEK293T; CRE-luciferase reporter gene assay, inhibition of forskolin-stimulated luminescence, agonist mode; details: HEK-293T, read-out: rH4R / α
[8] = biological target: T1, mH4R; experiment: […]GTPγS binding, Sf9 membranes; format: biochemical; parameters: gene Hrh4; SF-mH4R-His6: cleavable influenza hemagglutinin signal peptide and FLAG, hexahistidine tag; GTPgammaS: Sf9 membranes co-expressing Galphai2 and Gbeta1gamma2; details: read-out: mH4R / pEC50 or (pKB) (converted)
[9] = biological target: T2, rH4R; experiment: CRE-luciferase reporter gene assay, HEK293T; format: cell-based; parameters: gene Hrh4; SF-rH4R-His6: cleavable influenza hemagglutinin signal peptide and FLAG, hexahistidine tag; details: read-out: rH4R / pEC50 or (pKB) (converted)
[10] = biological target: T3, hH4R; experiment: cell-based; parameters: gene HRH4
[11] = biological target: T1, mH4R; experiment: cell-based; parameters: gene Hrh4; details: HEK293T-CRE-Luc stably expressing SF-H4R-His6, read-out: mH4R / α / −0.23±0.03
[12] = biological target: T2, rH4R; experiment: cell-based; parameters: gene Hrh4; details: HEK293T-CRE-Luc stably expressing SF-H4R-His6, read-out: rH4R / α
[13] = biological target: T3, hH4R; experiment: cell-based; parameters: gene HRH4; SF-hH4R-His6: cleavable influenza hemagglutinin signal peptide and FLAG, hexahistidine tag; stably expressed in HEK293T with CRE-luc2P reporter; species or system HEK293T; CRE-luciferase reporter gene assay, inhibition of forskolin-stimulated luminescence, agonist mode; details: HEK-293T, read-out: hH4R / α
[14] = HEK293T-CRE-Luc stably expressing SF-H4R-His6, read-out: rH4R / α
[15] = HEK293T-CRE-Luc stably expressing SF-H4R-His6, read-out: mH4R / α
[16] = HEK293T-CRE-Luc stably expressing SF-H4R-His6, read-out: hH4R / α / −0.32±0.04 / −0.39±0.03

T2 sequence (Q91ZY1 whole entry): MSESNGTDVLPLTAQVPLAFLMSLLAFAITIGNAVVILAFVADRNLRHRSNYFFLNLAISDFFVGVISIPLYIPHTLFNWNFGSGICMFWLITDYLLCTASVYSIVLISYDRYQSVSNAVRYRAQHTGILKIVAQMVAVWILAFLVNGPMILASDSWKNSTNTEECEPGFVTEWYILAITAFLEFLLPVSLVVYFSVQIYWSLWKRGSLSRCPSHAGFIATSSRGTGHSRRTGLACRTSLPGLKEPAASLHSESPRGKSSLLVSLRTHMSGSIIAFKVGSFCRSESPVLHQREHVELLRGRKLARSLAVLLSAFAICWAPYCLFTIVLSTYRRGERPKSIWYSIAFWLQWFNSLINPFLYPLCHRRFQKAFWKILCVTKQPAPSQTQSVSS
T3 sequence (Q9H3N8 whole entry): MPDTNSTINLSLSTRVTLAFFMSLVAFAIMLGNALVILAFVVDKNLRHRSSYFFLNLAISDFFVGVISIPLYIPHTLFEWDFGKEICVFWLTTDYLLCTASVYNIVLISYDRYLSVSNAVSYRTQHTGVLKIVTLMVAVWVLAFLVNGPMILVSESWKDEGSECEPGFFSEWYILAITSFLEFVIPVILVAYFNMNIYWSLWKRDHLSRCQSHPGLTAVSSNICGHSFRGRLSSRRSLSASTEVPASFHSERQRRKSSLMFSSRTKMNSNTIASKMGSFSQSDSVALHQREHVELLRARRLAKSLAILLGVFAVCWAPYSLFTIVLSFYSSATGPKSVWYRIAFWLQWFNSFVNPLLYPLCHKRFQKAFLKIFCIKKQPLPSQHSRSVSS

| SMILES | EC50 [1] [nM] | EC50 [2] [nM] | Emax [3, 14] [%] | Emax [4] [%] | Emax [5, 15] [%] | further results |
| --- | --- | --- | --- | --- | --- | --- |
| c1cc(Cc2cnc[nH]2)ccn1 [compound 7, Immethridine] | 1120 | 1580 | 94 ± 1 | 65 ± 2 | 87 ± 2 | – |
| c1nc(CC2CCNCC2)c[nH]1 [compound 6, Immepip] | 141 | 67.6 | 93 ± 5 | 98 ± 2 | 95 ± 3 | – |
| NC(=NCc1ccc(Cl)cc1)SCCCc1cnc[nH]1 [compound 9, Clobenpropit] | 186 | 158 | 37 ± 3 | 97 ± 3 | 55 ± 5 | Kb [6]: 501 nM |
| Cc1nc[nH]c1CCN [compound 5, 5(4)-Methylhistamine] | 135 | 933 | 100 ± 3 | 97 ± 3 | 97 ± 2 | – |
| N#CNC(=NCCCCc1cnc[nH]1)NCCSc1ccccc1 [UR-PI376 (14)] | – | – | – | 102 ± 2 | 51 ± 5 | Emax [7]: 8 ± 10% |
| N#C/N=C(/NCCCCc1c[nH]cn1)NCCSc1ccccc1 [compound 14, 2-cyano-1-[4-(1H-imidazol-4-yl)butyl]-3-[(2-phenylthio)ethyl]guanidine] | 245 | – | – | – | – | Kb [8]: 794 nM; Kb [9]: 7.08 µM |
| S=C(NC1CCCCC1)N1CCC(c2c[nH]cn2)CC1 [compound 20, Thioperamide] | – | – | – | – | – | Emax [7]: -20 ± 2%; Emax ([10]; HEK293T-CRE-Luc stably expressing SF-H4R-His6, read-out: hH4R / α / −0.31±0.06): -32 ± 4%; Emax [11]: -44 ± 2% |
| CN1CCN(C2=Nc3cc(Cl)ccc3Nc3ccccc32)CC1 [compound 17, Clozapine] | – | – | – | 130 ± 5 | – | – |
| Nc1nc2c(c(N3CC[C@@H](N)C3)n1)CCCc1ccccc1-2 [compound 22, A 943931] | – | – | – | – | – | Emax [7]: -6%; Emax [10, 16]: -63 ± 7% |
| CN1CCN(c2cc(N3Cc4ccccc4C3)nc(N)n2)CC1 [compound 21, ST-1012] | 32.4 | 7.59 | – | – | – | Emax ([10]; HEK293T-CRE-Luc stably expressing SF-H4R-His6, read-out: hH4R / α / −0.31±0.06 / −0.32±0.04): -39 ± 3%; Emax ([3]; HEK293T-CRE-Luc stably expressing SF-H4R-His6, read-out: rH4R / α / −0.20±0.02): 24 ± 7%; Emax ([5]; HEK293T-CRE-Luc stably expressing SF-H4R-His6, read-out: mH4R / α / −0.23±0.03 / −0.44±0.02): 24 ± 5% |
| c1ccc(COCCCc2c[nH]cn2)cc1 [compound 11, Proxyfan] | 794 | 2140 | – | 68 ± 2 | 88 ± 4 | Emax ([3]; HEK293T-CRE-Luc stably expressing SF-H4R-His6, read-out: rH4R / α / −0.01±0.06): 76 ± 3% |
| CN1CCN(c2cc(NCc3c(Cl)cccc3Cl)nc(N)n2)CC1 [compound 16, ST-1006] | – | – | – | 91 ± 1 | 37 ± 4 | Emax [12]: -55 ± 12% |
| Nc1nc2c(c(N3CCNCC3)n1)CCC1=C2[C@H]2CCCC[C@H]2O1 [compound 23, A 987306] | – | – | – | – | – | Emax [7]: -8%; Emax [10, 16]: -62 ± 7% |
| C[C@@H](N)Cc1cnc[nH]1 [compound 2, (R)-α-Methylhistamine] | – | – | 96 ± 2 | 103 ± 4 | 98 ± 1 | mH4R / pEC50 or (pKB) [1]: 6.16±0.07; rH4R / pEC50 or (pKB) [2]: 5.60±0.12 |
| C[C@H](N)Cc1c[nH]cn1 [compound 3, (S)-α-Methylhistamine] | – | – | 69 ± 3 | 90 ± 4 | 82 ± 7 | mH4R / pEC50 or (pKB) [1]: 4.72±0.16; rH4R / pEC50 or (pKB) [2]: 4.26±0.04 |
| NCCc1c[nH]cn1 [compound 1, Histamine] | – | – | 100 | 100 | 100 | – |
| N=C(N)SCCc1cnc[nH]1 [compound 8, Imetit] | 38.9 | 61.7 | 95 ± 1 | 94 ± 2 | 96 ± 2 | – |
| c1ncc(CCCC2CCNCC2)[nH]1 [compound 18, VUF 5681] | 6310 | – | – | – | 42 ± 2 | Emax [13]: 9% |
| CNCCc1cnc[nH]1 [compound 4, N^α-Methylhistamine] | 575 | 589 | 98 ± 4 | 98 ± 3 | 97 ± 2 | – |
